According to patent US20250042983A1, “ANTI-LCN-2 ANTIBODIES AS A TREATMENT FOR EYE DISORDERS” (UNIVERSITY OF PITTSBURGH - OF THE COMMONWEALTH SYSTEM OF …, priority 2021, published 2025):
Entries after “also recorded” stand apart in the source; their conditions may differ.

What was measured:
[1] = test system: ARPE19 cells; assay: Estimation of autophagosome number in RPE cells (GFP-RFP-LC3 puncta); assay type: cell-based, human; settings: chloroquine as positive control
Description: The cells were then treated with 10^7 vg/ml of an Ad-LCN-2 construct (as described above) for 48 h. […] Confocal images were acquired at 60× using Nikon NIS Elements v5.3(Nikon, Melville NY). 3D spot detection was used to segment positive structures for size, shape and intensity for RFP/GFP, and RFP only puncta were identified.

[2] = test system: Cryba1 KO RPE explants; assay: Rescue experiments in RPE explants exposed to FAC and Ad-LCN-2 (Western blot, ROS); assay type: cell-based, mouse; settings: pre-treatment, then FAC and Ad-LCN-2
Excerpt: RPE explant culture was done as previously described (Shang et al., Commun. Biol., 4(1): 850 (2021)). Briefly, eyeballs were enucleated from WT, Cryba1 KO, Sting KO or Sting^GT mice respectively, immediately after euthanasia by putting in CO2 chamber. The posterior eyecups were cut into four petals after the removal of anterior segments and the neural retina was carefully removed. The resulting RPE-Choroid-Sclera (RCS) complexes were flattened onto PVDF membranes with the RPE cells facing up and cultured as previously described. For experiments involving iron regulation, RPE explants from different genotypes were cultured in presence of ferric ammonium citrate (FAC, Sigma Aldrich, RES20400-A702X) at a dose of 250 μM for 72 h (Hadziahmetovic et al., Am. J Pathol., 179(1): 335-48 (2011)); Chothe et al., Biochem. Biophys. Res. Commun., 405(2): 244-9 (2011)), Adenovirus-LCN-2 (10^7 vg/ml, Ad-LCN-2, Vector Biolabs, ADV-263329) construct for 48 h and with or without chloroquine (ChQ; Sigma Aldrich, C6628-25G), a lysosomal blocker at a dose of 50 μM for the last 6 h of the experimental duration. For rescue experiments, Cryba1 KO explants were cultured and pre-treated with either Def (100 μM for 24 h; Sigma Aldrich, D9533-1G) or Sting inhibitor (H-151; 1 μM for 6 hours; Invitrogen, inh-h151) which was followed by FAC and Ad-LCN-2 treatment as explained above.
Whole cells lysates were made from RPE cells harvested from Cryba1^fl/fl or Cryba1 cKO mice or from in vitro RPE flat mount cultures from different experimental conditions as explained previously. The lysates were either made in 1×RIPA buffer (EMD Milipore, Cat #20-188) or NATIVE lysis buffer (Abcam, ab156035) containing 0.1% of a protease inhibitor cocktail (Sigma Aldrich, 13786) and 0.1% phosphatase inhibitor cocktail (Sigma Aldrich, P0044-5ML). The protein extracts were subjected to quantification by using the Pierce BCA Protein Assay Kit (Thermo Fisher, 23225). The RIPA protein samples were mixed with 4× protein sample buffer (Life Technologies, NP0007) containing 5% 2-mercaptoethanol (Sigma Aldrich, M6256) and heated at 95° C. for 10 min to denature. The native protein samples were mixed with NATIVE sample buffer (Bio-Rad, 1610738) at a 1:1 ratio. The native samples were loaded on NATIVE-PAGE gels (Thermo Fisher, BN1002BOX) and run using NATIVE-PAGE running buffer (Thermo Fisher, BN2001). Samples were loaded onto a 4-12% Bis-Tris Nu-PAGE gel (Invitrogen, NP0323BOX) and run with MES buffer (Invitrogen, NP0002). Proteins were transferred to nitrocellulose membranes (Invitrogen, 1B23001), which were then blocked in 5% blocking grade skim milk (Bio-Rad, 170-6404) or 5% BSA (Sigma Aldrich, A3912-50G) for phosphorylated proteins. The membranes were incubated with the appropriate primary antibody overnight followed by horseradish peroxidase-conjugated anti-rabbit (KPL, 074-1506) or anti-mouse (KPL, 074-1806) secondary antibodies for 1 h at RT. A chemiluminescence development technique was utilized to develop the blots (GE Healthcare, RPN2209) and the blots were imaged using the Azure imaging system (Azure Biosystems, USA). […]
The ROS generation in 10-month-old RPE cells from Cryba1^fl/fl and Cryba1 cKO mice was evaluated as described previously (Ghosh et al., Cell Signal., 68: 109521 (2020)). […]

[3] = test system: ARPE19 cells; assay: Live cell imaging of lipid peroxidation with liperfluo dye; assay type: cell-based, human
Description: To assess the levels of lipid peroxidation in RPE cells, ARPE19 cells were cultured on four chambered dishes (VWR, 627871) and then either left untreated (control) or treated with 250 μM of ferric ammonium citrate (FAC) for 72 h to mimic the increased iron levels in vivo, followed by Ad-LCN-2 (10^7 vg/ml) for the last 48 h and chloroquine (50 μM) for the last 6 h of the experimental duration respectively. RSL3 (3 μM, overnight; Cayman Chemicals, 19288) was used as a positive control for ferroptosis activation. The clone #6 monoclonal antibody targeting LCN-2 (mAb; 1 μg/ml, 24 h) antibody and 25 μM (overnight) of ferrostatin-1 (Cayman Chemicals, 17729) were added to the culture to rescue ferroptosis induction in the RPE cells. Prior to imaging, the cells were incubated with Liperfluo (10 μM, Fisher Scientific, L24810) for 30 min, and washed twice with PBS before replacing the original media in each chamber. […] Liperfluo was excited using a diode-pumped light engine (SPECTRA X, Lumencor) and detected using an Prime95b sCMOS camera (Photometrics) and excitation and emission filters from Chroma. […] Data was collected and liperfluo emissions were analyzed using NIS Elements (Nikon, Inc. Melville, NY).

[4] = target: T1, Human ATG4B (Homo sapiens, UniProt Q9Y4P1); assay: Cell free ATG4B activity assay (LC3-GST cleavage); assay type: biochemical; settings: ATG4B 0.5 μg/ml, LCN-2 1.0 μg/ml, 15 minutes; listed as human recombinant LCN-2
T1 construct: purchased Abcam ab188707
T1 sequence (Q9Y4P1 1-393): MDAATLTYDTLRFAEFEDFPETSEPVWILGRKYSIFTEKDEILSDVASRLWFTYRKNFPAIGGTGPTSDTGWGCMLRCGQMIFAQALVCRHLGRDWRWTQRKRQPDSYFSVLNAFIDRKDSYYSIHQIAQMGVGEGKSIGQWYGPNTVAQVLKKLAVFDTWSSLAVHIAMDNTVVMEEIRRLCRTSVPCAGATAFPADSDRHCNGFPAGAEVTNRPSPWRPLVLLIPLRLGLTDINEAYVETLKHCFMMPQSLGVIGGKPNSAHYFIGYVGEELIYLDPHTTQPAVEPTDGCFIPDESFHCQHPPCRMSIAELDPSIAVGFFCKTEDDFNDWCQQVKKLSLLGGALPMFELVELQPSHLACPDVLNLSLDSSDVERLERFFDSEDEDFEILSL
Description: ATG4B activity assay was measured by incubating recombinant human LC3-GST (Enzo, BML-UW1155-0500) at a dose of 20 μg/ml with 0.5 μg/ml of human ATG4B (Abcam, ab188707) with or without human LCN-2 (R&D Systems, 1757-LC-050) at a dose of 1 μg/ml for 15 min at room temperature (Pengo et al., Nat. Commun., 8(1): 294 (2017)). The protein samples were then mixed with 4× protein sample buffer (Life Technologies, NP0007) containing 5% 2-mercaptoethanol (Sigma Aldrich, M6256) and heated at 95° C. for 10 min to denature. The samples were then subjected to Western blot using the anti-GST primary antibody (Cell Signaling USA, 2622S) as previously explained (Ghosh et al., J. Pathol., 241(5): 583-588 (2017); Shang et al., Aging Cell, 16(2): 349-359 (2017)).

[5] = test system: ATG4B activity; assay: GFP-LC3-RFP-ΔLC3 construct and flow cytometry (ATG4B-mediated LC3 processing); assay type: cell-based, human; settings: recombinant LCN-2 1.0 μg/ml for 24 h; relative to control
Description: ARPE19 cells were cultured up to 60% confluency and then transfected with the GFP-LC3-RFP-ΔLC3 construct (Addgene, 84572), to assess ATG4B activity, using the manufacturer's protocol of the Lipofectamine 3000 Transfection Reagent (Thermo Fisher, L3000008) for 72 h (Ghosh et al., Commun. Biol., 4(1): 248 (2021)). The transfection efficiency was confirmed by visualizing the GFP and RFP signals in the transfected cells using a fluorescence microscope. This was followed by infection with an Ad-LCN-2 construct (as described above) for 48 h and treatment with recombinant human LCN-2 protein (R&D Systems, 1757-LC-050) at a dose of 1 μg/ml for 24 h in separate experiments. The cells were then scraped off the plates and were analyzed by flow cytometry using the LSR-II platform ([…]). The results were analyzed using the FlowJo software (v10.8) and the data from each group was represented as the ratio of median GFP fluorescence to RFP fluorescence (Kaizuka et al., Mol. Cell, 64(4): 835-849 (2016); Ghosh et al., Commun. Biol., 4(1): 248 (2021)).

[6] = target: T1, Human ATG4B; assay: Thermal shift assay with sypro orange; assay type: binding; settings: ATG4B incubated with human LCN-2, vs ATG4B only
Description: (§1) Changes in melting temperature (Tm) was assessed to evaluate the binding propensity of LCN-2 and ATG4B. Human ATG4B (Abcam, ab188707) at a dose of 0.5 μg/ml with or without 1 μg/ml of human LCN-2 (R&D Systems, 1757-LC-050) and 5 μM sypro orange (Thermo Fisher, S-6650) were incubated for 30 min at 4° C. The change in Tm was evaluated in a quantitative PCR machine (ABI Systems, USA) using a previously published method (Huynh et al., Curr. Protoc. Protein Sci., 79: 28.9.1-28.9.14 (2015); Layton et al., Protein Sci., 20(8): 1439-50 (2011)).

[7] = target: T2, recombinant human ATG4B (Abcam, ab188707) (human, UniProt Q9Y4P1 1-393, limits assumed); assay: thermal shift assay with sypro orange
T2 construct: Bought recombinant protein; also called human recombinant ATG4B; Autophagy Related 4B Cysteine Peptidase
T2 sequence (looked up): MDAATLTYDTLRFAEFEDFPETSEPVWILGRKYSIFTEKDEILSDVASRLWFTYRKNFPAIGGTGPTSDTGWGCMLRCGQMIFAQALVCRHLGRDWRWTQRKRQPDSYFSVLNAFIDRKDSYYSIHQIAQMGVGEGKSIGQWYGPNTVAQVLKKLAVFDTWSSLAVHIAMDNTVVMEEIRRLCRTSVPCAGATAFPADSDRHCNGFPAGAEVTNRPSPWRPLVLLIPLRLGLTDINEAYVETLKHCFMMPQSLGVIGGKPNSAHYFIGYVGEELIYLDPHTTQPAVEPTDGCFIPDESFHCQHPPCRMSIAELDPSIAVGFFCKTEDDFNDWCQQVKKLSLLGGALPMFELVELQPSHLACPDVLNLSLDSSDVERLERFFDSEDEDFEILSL
Description: FIGS. 2C-2D are line (2C) and dot plot (2D) graphs showing the results of a thermal shift assay. […] The melting temperature is reflective of the change in sypro orange fluorescence (arbitrary units) which was added (5 μM) to each reaction mixture. n=4. All values are Mean±SD. Significant change is indicated by *P<0.05.
as §1

## CCN(CC)CCCC(C)Nc1ccnc2cc(Cl)ccc12 (stereo not shown) [Chloroquine, chloroquine]
[1]
  number of puncta (autophagosomes): highly increased puncta

## CCc1ccc(NC(=O)Nc2c[nH]c3ccccc23)cc1 [Clone H-151]
[2]
  STING levels (Western blot): such changes were not observed
  cGAS levels (Western blot): such changes were not observed
[2]; vs vehicle (DMSO)
  NLRP3 levels (Western blot): significantly reduced; also recorded: rescued the levels of NLRP3 inflammasome expression
  SOD1 levels (Western blot): decreased
[2]; vs vehicle, listed as STING inhibitor
  ROS levels: decreased; also recorded: rescued

## COC(=O)c1ccc([C@@H]2c3[nH]c4ccccc4c3C[C@@H](C(=O)OC)N2C(=O)CCl)cc1 [RSL3, reference compound]
[3]; RSL3 alone as positive control, compared to control
  lipid peroxidation (liperfluo emission intensity): induced lipid peroxidation; also recorded: higher iperfluo emission intensity

## CCOC(=O)c1ccc(NC2CCCCC2)c(N)c1 [ferrostatin-1, reference compound]
[3]; ferrostatin-1 pre-treatment of FAC+Ad-LCN-2+Chloroquine (FLC) treated cells
  lipid peroxidation (liperfluo emission intensity): could rescue the lipid peroxidation; also recorded: abrogated the changes

B1: human recombinant LCN-2 (R&D Systems, 1757-LC-050) (other)
chain: QDSTSDLIPAPPLSKVPLQQNFQDNQFQGKWYVVGLAGNAILREDKDPQKMYATIYELKEDKSYNVTSVLFRKKKCDYWIRTFVPGCQPGEFTLGNIKSYPGLTSYLVRVVSTNYNQHAMVFFKKVSQNREYFKITLYGRTKELTSELKENFIRFSKSLGLPENHIVFPVPIDQCIDG
notes: Bought protein; also called human LCN-2 protein; recombinant human LCN-2
[4]
  ATG4B activity (GST cleavage from LC3-GST, Western blot): Decreased GST cleavage; also recorded: could inhibit LC3 processing through the inhibition of Atg4b activity
[5]
  GFP/RFP ratio (LC3 processing/lipidation): GFP fluorescence was increased; also recorded: increase in the GFP/RFP ratio
[6]; listed as human LCN-2 protein
  melting temperature (Tm) shift of ATG4B: increase in melting temperature
[6]; listed as human recombinant LCN-2
  melting temperature (Tm) shift of ATG4B: consistent with binding between the two proteins
[7]
  binding result: binds
